Molecular target: T1, recombinant human PRDX6 (peroxiredoxin 6) (Homo sapiens, UniProt P30041)
T1 sequence (P30041 1-224): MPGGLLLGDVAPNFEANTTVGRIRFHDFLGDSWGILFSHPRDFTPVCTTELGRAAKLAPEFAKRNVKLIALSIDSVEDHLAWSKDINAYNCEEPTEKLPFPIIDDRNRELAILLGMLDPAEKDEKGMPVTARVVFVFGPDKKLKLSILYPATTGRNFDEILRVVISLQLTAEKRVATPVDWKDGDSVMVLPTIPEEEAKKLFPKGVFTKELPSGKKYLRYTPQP
Assay: radioactive PLA2 assay, […]-DPPC liposomes, scintillation counting
Assay type: biochemical

- IC50: ~500 nM
Compound: CCN(CC)CCN(Cc1ccc(-c2ccc(C(F)(F)F)cc2)cc1)C(=O)Cn1c(SCc2ccc(F)cc2)nc(=O)c2c1CCC2 [Darapladib]

Source: publication doi:10.1101/2022.04.11.487889v1 (biorxiv, 2022)
